Results on 1 compound are retold here after patent US20050181516A1, “Bioequivalence determination using expression profiling” (priority 2002, published 2005).

One assay has as its system psoriasis. In words: 4 weeks clinical study of oral ASM981 in psoriatic patients. Type of assay: in vivo, human. The settings on record: 8 ASM981-treated patients, oral 60 mg/day (30 mg b.i.d.). How it is done: A clinical study was initiated with a standardized oral formulation of ASM981 (pimecrolimus) to treat psoriatic patients. The purpose of this study was both to investigate the nature of the alteration in gene expression profiles caused by the administration of a standardised oral formulation of pimecrolimus and to produce the necessary data to allow the bioequivalence of other pharmaceutically equivalent oral formulations of pimecrolimus to be tested. The dose used was 60 mg/day, given as 30 mg twice a day (b.i.d.). To make this dose the […] tablets were cut in half using a special cutter (Tablettenteiler NR.96) so as to obtain 30 mg of ASM981 or a matched amount of placebo. ASM981 was evaluated as treatment for psoriasis using an oral dose of 60 mg (30 mg b.i.d) during a 4 weeks clinical study. The oral formulation used was a highly standardized oral dosage form that could be produced in large amounts and with a highly uniform composition, this was oral formulation A. The cohort included 10 patients; 8 received oral formulation A and 2 received a placebo. Blood samples were collected before the first administration to establish the gene expression baseline and on days 13 or 14 after treatment with ASM981 or placebo and submitted to gene expression analysis in order to gain insights into the mechanisms of action of the compound.

Another assay deals with macrophilin FKBP12 (Homo sapiens, UniProt P62942). The note with it: relative to FK506; cited from earlier work.
In a further assay the test system is contact dermatitis. The note with it: topical application and oral route; cited from earlier work.
Assay [1] has as its system reperfusion after ischemia in the brain. The note with it: in vivo; cited from earlier work.

macrophilin FKBP12, sequence (P62942 whole entry): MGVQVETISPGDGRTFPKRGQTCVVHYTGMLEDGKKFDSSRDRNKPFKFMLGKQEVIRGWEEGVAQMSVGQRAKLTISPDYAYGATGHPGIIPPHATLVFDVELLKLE

`CC[C@@H]1/C=C(\C)C[C@H](C)C[C@H](OC)[C@H]2O[C@@](O)(C(=O)C(=O)N3CCCC[C@H]3C(=O)O[C@H](/C(C)=C/[C@@H]3CC[C@H](Cl)[C@H](OC)C3)[C@H](C)[C@@H](O)CC1=O)[C@H](C)C[C@@H]2OC` [ASM981, 33-Epichloro-33-desoxy-ascomycin]: in the assay on psoriasis, the “psoriasis (clinical data)” value is on record as “reduction of psoriasis”. Also, on macrophilin FKBP12, the “affinity for macrophilin FKBP12, fold lower than FK506” value is given as 3 fold. In the assay on contact dermatitis, the “efficacy in animal models of contact dermatitis” value is given as “effective”. Also, the “anti-inflammatory properties in reperfusion after ischemia in the brain” value in assay [1] is “successfully tested”.
